Here are results for two molecules from patent US7495003B2, “8-(3-amino-piperidin-1-yl)-7-(but-2-ynyl)-xanthines, the preparation thereof and their use as pharmaceutical compositions” (Boehringer Ingelheim International GmbH, priority 2004, dated 2009).

Data set [1] addresses T1, DPP-IV (Homo sapiens, UniProt P27487).
T1 construct: an extract of the human colon carcinoma cell line Caco-2 is used as the DPP IV source; endogenous in cells; host or cells: Caco-2 (human colon carcinoma), differentiated to induce DPP-IV expression; Nonidet-P40 solubilised extract
Nature of the data set: DPP-IV assay with extract of Caco-2 cells as DPP IV source (AFC substrate, fluorescence). The settings on record: extract of human colon carcinoma cell line Caco-2; substrate 100 μM; 60 minutes at ambient temperature; read-out: DPP IV inhibition IC50. In kind it is biochemical. The procedure: The differentiation of the cells in order to induce the DPP-IV expression was carried out in accordance with the description by Reiher et al. in an article entitled “Increased expression of intestinal cell line Caco-2”, which appeared in Proc. Natl. Acad. Sci. Vol. 90, pp. 5757-5761 (1993). The cell extract was obtained from cells solubilised in a buffer (10 mM Tris HCl, 0.15 M NaCl, 0.04 t.i.u. aprotinin, 0.5% Nonidet-P40, pH 8.0) by centrifugation at 35,000 g for 30 minutes at 4° C. (to remove cell debris).
The DPP-IV assay was carried out as follows:
50 μl of substrate solution (AFC; AFC is amido-4-trifluoromethylcoumarin), final concentration 100 μM, were placed in black microtitre plates. 20 μl of assay buffer (final concentrations 50 mM Tris HCl pH 7.8, 50 mM NaCl, 1% DMSO) was pipetted in. The reaction was started by the addition of 30 μl of solubilised Caco-2 protein (final concentration 0.14 μg of protein per well). The test substances under investigation were typically added prediluted to 20 μl, while the volume of assay buffer was then reduced accordingly. […] Then the fluorescence was measured in a Victor 1420 Multilabel Counter, with the excitation wavelength at 405 nm and the emission wavelength at 535 nm. […] The potency of the test substances in question, expressed as IC50 values, were calculated from dosage/activity curves consisting of 11 measured points in each case.

For data set [2], the system named is rats. In words: Tolerability in rats after oral administration. In kind it is in vivo. The settings on record: oral administration of 10 mg/kg.

pIC50: −log10 of the molar value.

T1 sequence (P27487 whole entry): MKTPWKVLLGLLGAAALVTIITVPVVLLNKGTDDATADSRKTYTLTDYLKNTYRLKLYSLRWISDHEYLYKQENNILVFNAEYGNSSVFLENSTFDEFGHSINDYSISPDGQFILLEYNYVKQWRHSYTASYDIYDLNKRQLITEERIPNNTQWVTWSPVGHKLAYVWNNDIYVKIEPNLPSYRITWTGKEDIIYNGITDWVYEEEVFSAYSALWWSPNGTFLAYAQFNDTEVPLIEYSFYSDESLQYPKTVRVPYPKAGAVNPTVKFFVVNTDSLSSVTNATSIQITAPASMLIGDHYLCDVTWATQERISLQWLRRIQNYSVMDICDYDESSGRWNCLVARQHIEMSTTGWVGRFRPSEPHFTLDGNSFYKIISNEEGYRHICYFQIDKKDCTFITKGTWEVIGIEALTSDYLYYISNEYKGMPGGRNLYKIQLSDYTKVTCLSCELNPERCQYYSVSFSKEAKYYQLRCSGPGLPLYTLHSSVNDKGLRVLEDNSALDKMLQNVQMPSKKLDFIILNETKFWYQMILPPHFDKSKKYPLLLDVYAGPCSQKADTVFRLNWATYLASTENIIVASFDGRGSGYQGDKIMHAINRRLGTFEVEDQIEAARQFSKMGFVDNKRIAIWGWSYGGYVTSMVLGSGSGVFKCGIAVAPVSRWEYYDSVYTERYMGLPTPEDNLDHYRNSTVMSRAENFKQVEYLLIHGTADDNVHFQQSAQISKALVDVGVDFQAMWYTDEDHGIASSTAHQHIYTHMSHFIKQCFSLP

As a reminder, the pIC50 is −log10 of the IC50, conventionally taken in molar units. With `CC#CCn1c(N2CCC[C@@H](N)C2)nc2c1c(=O)n(Cc1nc(C)c3ccccc3n1)c(=O)n2CC(=O)OCC` [1(3), (R)-1-(4-methyl-quinazolin-2-ylmethyl)-3-(ethoxycarbonylmethyl)-7-(but-2-ynyl)-8-(3-amino-piperidin-1-yl)-xanthine], in data set [1], the pIC50 is 8.52.

Take `CC#CCn1c(N2CCC[C@@H](N)C2)nc2c1c(=O)n(Cc1nc(C)c3ccccc3n1)c(=O)n2CC(=O)OC` [Example 1(2), (R)-1-(4-methyl-quinazolin-2-ylmethyl)-3-(methoxycarbonylmethyl)-7-(but-2-ynyl)-8-(3-amino-piperidin-1-yl)-xanthine]: the toxic side effects entry in data set [2] is “no toxic side effects could be detected”. In addition, the pIC50 in data set [1] is 8.52.
